Assay results: paper PMC12670317, “Targeted NAT10 Degradation by PROTAC NP1192 Suppresses Hypoxia-Adaptive Glycolysis and Reinvigorates CD8^+ Effector T‑Cell Function for Synergistic Cancer Immunotherapy” (ACS Central Science, 2025)
Where a SMILES comes first, the peptide text is derived from it. The star is where a group is joined. Cbz = O=C(OCc1ccccc1)*

Tests used:
NAT10 = target: T1, NAT10 (Homo sapiens, UniProt Q9H0A0); assay: NAT10 degradation in SiHa cells, Western blot; format: cell-based; conditions: SiHa cells; for effect of cotreatment on NP1192-mediated degradation of NAT10: inhibitor 200 nM for 12 h, then NP1192 for 36 h
T1 construct: depletion of total NAT10 protein in SiHa (human) and U14 (murine) CCa cell lines; endogenous in cells; host or cells: SiHa (human cervical cancer cell line)
T1 sequence (Q9H0A0 1-1025): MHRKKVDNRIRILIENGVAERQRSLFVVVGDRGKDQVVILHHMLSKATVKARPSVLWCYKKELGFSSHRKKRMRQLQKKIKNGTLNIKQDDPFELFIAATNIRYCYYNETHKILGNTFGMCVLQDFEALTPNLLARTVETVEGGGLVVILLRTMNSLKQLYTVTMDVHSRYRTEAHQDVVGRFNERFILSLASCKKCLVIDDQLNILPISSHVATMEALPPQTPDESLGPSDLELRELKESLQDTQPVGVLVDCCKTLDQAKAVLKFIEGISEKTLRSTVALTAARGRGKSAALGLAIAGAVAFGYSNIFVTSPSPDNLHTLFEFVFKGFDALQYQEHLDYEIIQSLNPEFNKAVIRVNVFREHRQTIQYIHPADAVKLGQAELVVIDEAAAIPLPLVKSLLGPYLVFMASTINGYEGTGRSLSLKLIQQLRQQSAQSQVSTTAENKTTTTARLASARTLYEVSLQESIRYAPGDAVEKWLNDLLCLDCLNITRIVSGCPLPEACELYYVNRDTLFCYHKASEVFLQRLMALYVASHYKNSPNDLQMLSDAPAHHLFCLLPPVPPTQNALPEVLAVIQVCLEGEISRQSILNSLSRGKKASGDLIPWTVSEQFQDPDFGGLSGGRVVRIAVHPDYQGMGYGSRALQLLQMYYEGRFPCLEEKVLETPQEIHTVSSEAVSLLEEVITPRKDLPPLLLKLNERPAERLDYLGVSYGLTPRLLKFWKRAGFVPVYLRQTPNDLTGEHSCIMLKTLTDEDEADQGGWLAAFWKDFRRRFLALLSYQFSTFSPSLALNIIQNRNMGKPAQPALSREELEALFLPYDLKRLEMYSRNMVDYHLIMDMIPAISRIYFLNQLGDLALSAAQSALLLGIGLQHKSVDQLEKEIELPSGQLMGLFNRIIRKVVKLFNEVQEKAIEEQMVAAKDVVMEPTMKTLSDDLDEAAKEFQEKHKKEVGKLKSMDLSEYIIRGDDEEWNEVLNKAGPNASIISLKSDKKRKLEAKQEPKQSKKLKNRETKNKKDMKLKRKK
Protocol: The human CCa cell line SiHa and the normal epithelial foreskin fibroblast line HFF-1 were purchased from the Cell Bank of the Chinese Academy of Sciences. Additionally, murine cervical carcinoma cell line U14 (RRID:CVCL_9U56) was purchased from Boster Company. HFF-1 and U14 cells were cultured in Dulbecco’s modified Eagle’s medium (DMEM) (Gibco, USA) supplemented with 10% heat-inactivated fetal bovine serum (FBS; Gibco, USA), while SiHa cells were incubated in RPMI 1640 medium (Gibco, USA) in a humid atmosphere with 5% CO2 at 37 °C. For hypoxia exposure, the cells were incubated in a sealed culture tank containing 5% CO2 and 0.1% O2 (MGC, Japan) for 36 h.
RIPA lysis buffer (Beyotime, China) mixed with 1% protease inhibitor (Sigma, US) was added to the cells, and a sample of total protein was obtained and then loaded onto an 8% or 12% polyacrylamide gel. The gel was placed in a buffer solution, and an electric current was applied. The separated proteins were subsequently transferred from the gel onto a PVDF membrane. Next, the membrane was blocked with 5% milk for 1 h to prevent nonspecific antibody binding. The membranes were subsequently incubated with anti-NAT10 (1:1000, Abcam, USA), anti-PD-L1 (1:1000, Proteintech, China), anti-HIF-1α (1:1000, Abmart, China), and anti-β-tubulin (1:1000, Proteintech, China) primary antibodies for 12 h. Afterward, the membrane was sequentially washed with 1× TBST and incubated for 1 h with an antimouse secondary antibody (1:6000, Elabscience, China) or antirabbit secondary antibody (1:6000, Elabscience, China). The target proteins were detected via chemiluminescence with a ChemiDoc MP Imaging System (Bio-Rad, US).

SiHa cells [1] = assay: Colony formation assay in SiHa cells; format: cell-based, human; conditions: pretreated 20 μM 36 h, 2 weeks
Protocol: NAT10^± SiHa cells and SiHa cells treated with DMSO, Remodelin or NP1192 for 36 h were seeded into the wells of a 6-well microplate at identical densities of 2000 or 3000 cells per well. The cells were then incubated in the incubator for at least 2 weeks to form colonies. After the incubation period, the cells were fixed with formalin and then stained with crystal violet. The colonies were then counted via a microscope. The number and size of the colonies in the experimental groups were compared.

[2] = system: CD8+ TILs, M2 macrophages, MDSCs and Treg cells in U14 xenograft tumors; conditions: Figure 7A
Protocol: U14 cells (1 × 10^7 cells per mouse, approximately 100–150 μL of cell suspension) were implanted subcutaneously into the lateral lower dorsal surface of each mouse. The tumors were allowed to grow for 7 days, and the mice were then administered one of five treatments (group 1: U14 cells + DMSO; group 2: U14 cells + Remodelin; group 3: U14 cells + anti-PD-L1 antibody; group 4: U14 cells + NP1192; group 5: U14 cells + anti-PD-L1 antibody + NP1192). Each group of mice was assigned according to the principles of randomization and the blinding method. Tumors were measured every 2 days, and tumor volume was calculated via the following equation: volume = (width)^2 × length/2. Remodelin and NP1192 were injected into the peritumoral area every 2 days at a dose of 25 mg/kg, and the in vivo antimouse PD-L1 antibody (low endotoxin) was injected every 3 days at a dose of 2.5 mg/kg.
After the mice were euthanized, the tumor and peritumoral tissues were analyzed with an immunoflow kit (BioLegend, USA). The antibodies used for immunoflow cytometry included antihuman/mouse antibodies specific for CD11b-BV711, F4/80-AF647, CD206-PE, CD86-BV605, CD4-CD4-FITC IL-17-17-CY7/CY7, CD25-PE, FOXP3-AF647, CD4-BV605, CD45-PE/CY7, CD11b-BV711 and LY-6G/LY-6C-BV421 (BioLegend catalog no. 321239, RRID:AB_2860843). All data analyses were performed via GraphPad Prism 9, and the data are presented as the mean ± SEMs.

SiHa cells [3] = assay: SiHa cell viability IC50 (CCK-8); format: cell-based, human; conditions: Homo sapiens; parental SiHa cells, 36 h; read-out: IC50, inhibition of SiHa cell viability
Protocol: NAT10^± SiHa cells and SiHa cells treated with DMSO, Remodelin or NP1192 for 36 h were seeded into the wells of a 96-well microplate at identical densities of 2000 or 3000 cells per well. After the cells adhered to the well surface, 110 μL of a 1:10 mixture of CCK-8 reagent (Meilunbio, China) and RPMI 1640 medium was added to each well. The microplate was then incubated for another 2 h in the incubator, and the mixture was replaced with an equal volume of medium. A microplate reader (BioTek, US) was used to measure the absorption at a wavelength of 450 nm.

[4] = system: Remodelin^Resist SiHa cells; assay: IC50 and resistance index in Remodelin-resistant SiHa cells (CCK-8); format: cell-based, human
Protocol: We generated Remodelin-resistant (Remodelin^Resist SiHa) and NP1192-resistant (NP1192^Resist SiHa) SiHa CCa cell lines by applying a stepwise dose escalation strategy, as previously described in the literature. To quantitatively assess resistance, we calculated the resistance index for each subline following the established methodologies. Briefly, 3000 cells per well were seeded in 96-well plates and treated with increasing concentrations of Remodelin or NP1192 (0, 10, 50, 100, and 150 μM) for 24 h. Following treatment, 10 μL of CCK-8 reagent was added to each well and incubated for an additional 2 h. Absorbance at 490 nm was measured, and the IC50 values were calculated using GraphPad Prism 9.0. The RI was defined as the ratio of the IC50 in resistant cells to that in parental cells.

Q: With CO/C1=C\C(C)=C\[C@@H](C)[C@@H](O)[C@@H](C)C/C(C)=C/C=C/[C@H](OC)[C@@H]([C@@H](C)[C@@H](O)[C@H](C)[C@@]2(O)C[C@@H](O)[C@H](C)[C@@H](C(C)C)O2)OC1=O [bafilomycin A1, reference compound] as the molecule, how does the “effect of cotreatment on NP1192-mediated degradation of NAT10” value (NAT10) read?
A: no discernible effect

Q: Which results are given for N#Cc1ccc(-c2csc(N(CCCCC(=O)NCCCNc3cccc4c3C(=O)N(C3CCC(=O)NC3=O)C4=O)N=C3CCCC3)n2)cc1 (stereo not drawn) [NP1149]?
A: NAT10 degradation (NAT10; at 36 h, time course Figure 1G): 20%; NAT10 degradation rate (NAT10; panel TP1–32 at the same time and concentration, Figure 1E): 23%

Q: With N#Cc1ccc(-c2csc(NN=C3CCCC3)n2)cc1 [Remodelin, reference compound] as the molecule, how does the colony formation capacity (SiHa cells [1]) read?
A: minimal suppressive effects

Q: What about the Treg gate ([2]; CD4+CD25+FOXP3+) of the same molecule?
A: 0.84%

Q: What about the “M2 (M2 macrophages gate)” value ([2]; CD11b+F4/80+CD206+) of the same molecule?
A: 21.24%

Q: What about the MDSC gate ([2]; CD11b+LY-6G+) of the same molecule?
A: 58.69%

Q: And the “CD8+ (CD8+ TILs gate)” value ([2]; tumors after treatment)?
A: 0.56%

Q: What about the IC50 (SiHa cells [3]) of the same molecule?
A: 10.7 µM

Q: What about the “resistance index (RI = IC50 resistant/parental SiHa)” value ([4]; 497.3/10.67) of the same molecule?
A: 46.60

Q: What about the IC50 ([4]; Homo sapiens, Remodelin^Resist SiHa cells) of the same molecule?
A: 497 µM

Q: With CC(C)C[C@@H](C=O)NC(=O)[C@H](CC(C)C)NC(=O)[C@H](CC(C)C)NC(=O)OCc1ccccc1 [MG132, reference compound] (Cbz-Leu-Leu-Leu-aldehyde) as the molecule, how does the “effect of cotreatment on NP1192-mediated degradation of NAT10” value (NAT10) read?
A: significantly impeded
